Where a SMILES comes first, the peptide text is derived from it. [ ]: non-standard residue; d: D form. The star is where a group is joined. NHCH2CH2OH = OCCN*; For = O=C*
Assays:
[1] = H+/Na+ transport assay of bead-derived peptides (one-point); type: biochemical; set-up: key: relative activity; mean of two control wells = 1.00; conditions: bead-derived peptide solution, EYPC/EYPG LUVs;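 also: relative to parent gramicidin A activity set to 1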
Summary of the method: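 H+/Na+ transport is monitored through pyranine fluorescence in freshly extruded LUVs after a 30-min room-temperature vortex with each library peptide at a single concentration. Signals are normalized to detergent (Triton X-100) and untreated controls.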

[2] = test system: Streptococcus pyogenes SSI-9; assay: Antibacterial activity assay of bead-derived peptides (three concentrations); type: cell-based; set-up: key: +++: inhibition by the 640-fold diluted peptide solution; ++: inhibition by the 160-fold diluted solution; +: inhibition by the 40-fold diluted solution; -: no inhibition; conditions: S. pyogenes, bead-derived peptide solution, three concentrations
Summary of the method: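 Undiluted, 4-fold and 16-fold DMSO-diluted peptide stocks; S. pyogenes SSI-9, 2 × 10^5 CFU, cation-adjusted MHB (50 mg/L Ca2+, 25 mg/L Mg2+) + 5% laked horse blood; 37 °C, 18 h; readout = cell pellet visible or not.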

[3] = cell viability/%
Summary of the method: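 P388 cells at 1 × 10^4 cells/mL (final) were exposed to library peptides (stocks diluted 250-fold in RPMI1640/10% FBS) for 92 h at 37 °C, 5% CO2. Viable cells were counted by WST-1/1-methoxy PMS (4 h), absorbance 415 nm, and expressed as cell viability (%).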

| SMILES | H+/Na+ transport activity normalized against the value of 1 (1.00) [1] | antibacterial activity [2] | viability [3] [%] |
| --- | --- | --- | --- |
| CC(C)C[C@@H](NC(=O)[C@H](C)NC(=O)[C@H](NC(=O)[C@H](C)NC(=O)CNC(=O)[C@@H](NC=O)C(C)C)C(C)C)C(=O)N[C@H](C(=O)N[C@@H](C(=O)N[C@@H](Cc1c[nH]c2ccccc12)C(=O)N[C@@H](C(=O)N[C@@H](Cc1c[nH]c2ccccc12)C(=O)N[C@@H](C(=O)N[C@@H](Cc1c[nH]c2ccccc12)C(=O)N[C@H](CC(C)C)C(=O)N[C@@H](Cc1c[nH]c2ccccc12)C(=O)NCCO)C(C)C)C(C)C)C(C)C)C(C)C [compound 437] (For-VGA[dV]A[dL]V[dV]W[dV]W[dV]W[dL]W-NHCH2CH2OH) | 1.11 | + | 100 |
| CC(C)C[C@@H](NC(=O)[C@H](C)NC(=O)CNC(=O)[C@@H](NC=O)C(C)C)C(=O)N[C@@H](C)C(=O)N[C@H](CC(C)C)C(=O)N[C@H](C(=O)N[C@@H](C(=O)N[C@@H](Cc1c[nH]c2ccccc12)C(=O)N[C@@H](C(=O)N[C@@H](Cc1c[nH]c2ccccc12)C(=O)N[C@H](CC(C)C)C(=O)N[C@@H](Cc1c[nH]c2ccccc12)C(=O)N[C@@H](C(=O)N[C@@H](Cc1c[nH]c2ccccc12)C(=O)NCCO)C(C)C)C(C)C)[C@H](C)O)C(C)C [compound 8043] (For-VGA[dL]A[dL]V[dT]W[dV]W[dL]W[dV]W-NHCH2CH2OH) | 1.04 | - | 100 |
| CC(C)C[C@@H](NC(=O)[C@H](Cc1c[nH]c2ccccc12)NC(=O)[C@H](NC(=O)[C@H](Cc1c[nH]c2ccccc12)NC(=O)[C@H](NC(=O)[C@H](Cc1c[nH]c2ccccc12)NC(=O)[C@@H](CC(C)C)NC(=O)[C@@H](NC(=O)[C@H](NC(=O)[C@H](C)NC(=O)[C@H](NC(=O)[C@H](C)NC(=O)CNC(=O)[C@@H](NC=O)C(C)C)C(C)C)[C@H](C)O)C(C)C)C(C)C)C(C)C)C(=O)N[C@@H](Cc1c[nH]c2ccccc12)C(=O)NCCO [compound 7320] (For-VGA[dV]A[dT]V[dL]W[dV]W[dV]W[dL]W-NHCH2CH2OH) | 1.04 | - | 58.5 |
| CNC(=O)C[C@@H](NC(=O)[C@H](Cc1c[nH]c2ccccc12)NC(=O)[C@@H](CC(C)C)NC(=O)[C@@H](NC(=O)[C@@H](CC(C)C)NC(=O)[C@H](C)NC(=O)[C@@H](CC(C)C)NC(=O)[C@H](C)NC(=O)CNC(=O)[C@@H](NC=O)C(C)C)C(C)C)C(=O)N[C@@H](Cc1c[nH]c2ccccc12)C(=O)N[C@@H](C(=O)N[C@@H](Cc1c[nH]c2ccccc12)C(=O)N[C@H](CC(C)C)C(=O)N[C@@H](Cc1c[nH]c2ccccc12)C(=O)NCCO)C(C)C [compound 2432] (For-VGA[dL]A[dL]V[dL]W[dD](NHMe)W[dV]W[dL]W-NHCH2CH2OH) | 1.06 | - | 100 |
| CC(C)C[C@@H](NC(=O)[C@H](Cc1c[nH]c2ccccc12)NC(=O)[C@@H](CC(C)C)NC(=O)[C@@H](NC(=O)[C@H](NC(=O)[C@H](C)NC(=O)[C@H](NC(=O)[C@H](C)NC(=O)CNC(=O)[C@@H](NC=O)C(C)C)C(C)C)C(C)C)C(C)C)C(=O)N[C@@H](Cc1c[nH]c2ccccc12)C(=O)N[C@@H](C(=O)N[C@@H](Cc1c[nH]c2ccccc12)C(=O)N[C@@H](C(=O)N[C@@H](Cc1c[nH]c2ccccc12)C(=O)NCCO)C(C)C)[C@H](C)O [compound 79] (For-VGA[dV]A[dV]V[dL]W[dL]W[dT]W[dV]W-NHCH2CH2OH) | 1.14 | ++ | 100 |
| CC(C)C[C@@H](NC(=O)[C@H](C)NC(=O)[C@H](NC(=O)[C@H](C)NC(=O)CNC(=O)[C@@H](NC=O)C(C)C)[C@H](C)O)C(=O)N[C@H](C(=O)N[C@@H](C(=O)N[C@@H](Cc1c[nH]c2ccccc12)C(=O)N[C@@H](C(=O)N[C@@H](Cc1c[nH]c2ccccc12)C(=O)N[C@H](CC(C)C)C(=O)N[C@@H](Cc1c[nH]c2ccccc12)C(=O)N[C@H](CC(C)C)C(=O)N[C@@H](Cc1c[nH]c2ccccc12)C(=O)NCCO)[C@H](C)O)C(C)C)C(C)C [compound 6896] (For-VGA[dT]A[dL]V[dV]W[dT]W[dL]W[dL]W-NHCH2CH2OH) | 1.18 | - | 100 |
| CC(C)C[C@@H](NC(=O)[C@H](Cc1c[nH]c2ccccc12)NC(=O)[C@@H](CC(C)C)NC(=O)[C@H](Cc1c[nH]c2ccccc12)NC(=O)[C@H](NC(=O)[C@H](Cc1c[nH]c2ccccc12)NC(=O)[C@@H](CC(C)C)NC(=O)[C@@H](NC(=O)[C@H](NC(=O)[C@H](C)NC(=O)[C@H](NC(=O)[C@H](C)NC(=O)CNC(=O)[C@@H](NC=O)C(C)C)C(C)C)[C@H](C)O)C(C)C)C(C)C)C(=O)N[C@@H](Cc1c[nH]c2ccccc12)C(=O)NCCO [compound 2085] (For-VGA[dV]A[dT]V[dL]W[dV]W[dL]W[dL]W-NHCH2CH2OH) | 1.20 | - | 100 |
| CC(C)C[C@@H](NC(=O)[C@H](Cc1c[nH]c2ccccc12)NC(=O)[C@H](NC(=O)[C@H](Cc1c[nH]c2ccccc12)NC(=O)[C@H](NC(=O)[C@@H](NC(=O)[C@H](NC(=O)[C@H](C)NC(=O)[C@H](NC(=O)[C@H](C)NC(=O)CNC(=O)[C@@H](NC=O)C(C)C)[C@H](C)O)C(C)C)C(C)C)C(C)C)[C@H](C)O)C(=O)N[C@@H](Cc1c[nH]c2ccccc12)C(=O)N[C@@H](C(=O)N[C@@H](Cc1c[nH]c2ccccc12)C(=O)NCCO)C(C)C [compound 12629] (For-VGA[dT]A[dV]V[dV]W[dT]W[dL]W[dV]W-NHCH2CH2OH) | 1.01 | - | 100 |
| CC(C)C[C@@H](NC(=O)[C@H](C)NC(=O)[C@H](NC(=O)[C@H](C)NC(=O)CNC(=O)[C@@H](NC=O)C(C)C)C(C)C)C(=O)N[C@H](C(=O)N[C@@H](C(=O)N[C@@H](Cc1c[nH]c2ccccc12)C(=O)N[C@H](CC(C)C)C(=O)N[C@@H](Cc1c[nH]c2ccccc12)C(=O)N[C@@H](C(=O)N[C@@H](Cc1c[nH]c2ccccc12)C(=O)N[C@H](CC(C)C)C(=O)N[C@@H](Cc1c[nH]c2ccccc12)C(=O)NCCO)[C@H](C)O)C(C)C)C(C)C [compound 9177] (For-VGA[dV]A[dL]V[dV]W[dL]W[dT]W[dL]W-NHCH2CH2OH) | 1.05 | - | 61.7 |
| CNC(=O)C[C@@H](NC(=O)[C@@H](NC(=O)[C@@H](CC(C)C)NC(=O)[C@H](C)NC(=O)[C@@H](CC(C)C)NC(=O)[C@H](C)NC(=O)CNC(=O)[C@@H](NC=O)C(C)C)C(C)C)C(=O)N[C@@H](Cc1c[nH]c2ccccc12)C(=O)N[C@@H](C(=O)N[C@@H](Cc1c[nH]c2ccccc12)C(=O)N[C@H](CC(C)C)C(=O)N[C@@H](Cc1c[nH]c2ccccc12)C(=O)N[C@@H](C(=O)N[C@@H](Cc1c[nH]c2ccccc12)C(=O)NCCO)[C@H](C)O)C(C)C [compound 3280] (For-VGA[dL]A[dL]V[dD](NHMe)W[dV]W[dL]W[dT]W-NHCH2CH2OH) | 1.20 | - | 100 |

Reference: publication PMC7531004, “Discovery of gramicidin A analogues with altered activities by multidimensional screening of a one-bead-one-compound library” (Nature Communications, 2020)
